Data published in patent US20160355457A1, “Solid Forms Comprising(-)-O-Desmethylvenlafaxine And Uses Thereof” (Sunovion Pharmaceuticals Inc., priority 2007, published 2016).

Assays:
[1] = Moisture sorption/desorption (dynamic vapor sorption); assay type: physicochemical
Description: Moisture sorption/desorption data were collected on a VTI SGA-100 Vapor Sorption Analyzer. Sorption and desorption data were collected over a range of 5% to 95% relative humidity (RH) at 10% RH intervals under a nitrogen purge. For some samples, a step at 90% RH was added to the sorption cycle. Samples were not dried prior to analysis. Equilibrium criteria used for analysis were less than 0.0100% weight change in 5 minutes, with a maximum equilibration time of 3 hours if the weight criterion was not met. Data were not corrected for the initial moisture content of the samples. NaCl and PVP were used as calibration standards.

[2] = Stability properties of the solid form; assay type: physicochemical
[3] = decreased from 95% to 5% relative humidity
[4] = increased from 5% to 95% relative humidity

| SMILES | loss in mass on decreasing relative humidity (dynamic vapor sorption) [1, 3] | gain in mass on increasing relative humidity (dynamic vapor sorption) [1, 4] | further results |
| --- | --- | --- | --- |
| CN(C)C[C@@H](c1ccc(O)cc1)C1(O)CCCCC1.Cl [Form A, (−)-1-[2-(dimethylamino)-1-(4-hydroxyphenyl)ethyl]cyclohexanol hydrochloride salt] |  |  | loss in mass on decreasing relative humidity (dynamic vapor sorption) ([1]; decreased from 90% to 5% relative humidity): about 1%; gain in mass on increasing relative humidity (dynamic vapor sorption) ([1]; increased from 5% to 90% relative humidity, hydrochloride salt): < 1%; stability properties [2]: excellent stability properties |
| CN(C)C[C@@H](c1ccc(O)cc1)C1(O)CCCCC1.Cl [Form B, monohydrochloride salt of (−)-O-desmethylvenlafaxine] | about 26% | about 25% |  |
| CN(C)C[C@@H](c1ccc(O)cc1)C1(O)CCCCC1.Cl [Form C, monohydrochloride salt of (−)-O-desmethylvenlafaxine] | about 27% | about 27% |  |
| CN(C)C[C@@H](c1ccc(O)cc1)C1(O)CCCCC1.Cl [Form E, monohydrochloride salt of (−)-O-desmethylvenlafaxine] | about 5.8% | about 4.7% |  |
| CN(C)C[C@@H](c1ccc(O)cc1)C1(O)CCCCC1.Cl [amorphous form, (−)-1-[2-(dimethylamino)-1-(4-hydroxyphenyl)ethyl]cyclohexanol monohydrochloride salt] |  |  | loss in mass on decreasing relative humidity (dynamic vapor sorption) ([1]; decreased from 95% to 5% relative humidity, monohydrochloride salt): about 32%; gain in mass on increasing relative humidity (dynamic vapor sorption) ([1]; increased from 5% to 95% relative humidity, monohydrochloride salt): about 36% |

Further lines, with some results ahead:

| loss in mass on decreasing relative humidity (dynamic vapor sorption) [1, 3] | gain in mass on increasing relative humidity (dynamic vapor sorption) [1, 4] | SMILES | further results |
| --- | --- | --- | --- |
| about 33% | about 32% | CN(C)C[C@@H](c1ccc(O)cc1)C1(O)CCCCC1.Cl [Form F, monohydrochloride salt of (−)-O-desmethylvenlafaxine] |  |
| about 22% | about 23% | CN(C)C[C@@H](c1ccc(O)cc1)C1(O)CCCCC1.Cl [Form G, monohydrochloride salt of (−)-O-desmethylvenlafaxine] | gain in mass on increasing relative humidity (dynamic vapor sorption) ([1]; increased from 5% to 90% relative humidity): about 3% |
